This note sets out measurements from BindingDB's records for doi:10.1016/j.bmcl.2009.05.120 (Royal College of Surgeons In Ireland, 2009).

The nature of the assay: Inhibition of PGHS-1 in human platelet rich plasma assessed as inhibition of arachidonic acid-induced platelet aggregation in human platelet rich plasma treated 5 min before arachidonic acid challenge by turbidimetry.

In general, IC50 refers to the concentration at which inhibition is half-maximal.

Turning to `COC(=O)CCCCc1cccc(C(=O)OC)c1OC(C)=O` [methyl 2-acetoxy-3-(5-methoxy-5-oxopentyl)benzoate], the IC50 was determined as 720 µM.
